The record followed here is patent publication US11964988B2, “Fused heterocyclic compounds as RET kinase inhibitors” (ARRAY BIOPHARMA INC., priority 2018, dated 2024).

Holding throughout (test): biochemical
Assay [1] has as its target G810S mutant RET kinase (Homo sapiens, UniProt P07949, G810S).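 Also: HTRF KinEASE-TK kinase assay with recombinant enzyme, 1 h at 22 °C, dual-wavelength ratiometric read-out, percent of control (DMSO-only = 100, pre-quenched reaction = 0).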
Description: (§1) The potency of compounds inhibiting several different RET kinase forms (Wild Type, V804M, G810R, & G810S) were determined using CisBio's HTRF® KinEASE™-TK assay technology. […] After a 1 hour incubation at 22° C., the extent of reaction was determined using a PerkinElmer EnVision multimode plate reader via HTRF dual wavelength detection, and the percent of control (POC) was calculated using a ratiometric emission factor. One hundred POC was determined using DMSO only samples (no compound present), and 0 POC was determined using pre-quenched control reactions.
(§2) The potency of a compound inhibiting G810R or G810S mutant RET kinase was determined using CisBio's HTRF® KinEASE™-TK assay technology. The assays contained G810R or G810S mutant RET produced at Array Biopharma, Inc. (1 nM enzyme). […] After a 1-h incubation at 22° C., the extent of reaction was determined using a PerkinElmer EnVision multimode plate reader via HTRF dual wavelength detection, and the percent of control (POC) was calculated using a ratiometric emission factor. One hundred POC was determined using no test compounds, and 0 POC was determined using pre-quenched control reactions.
In assay [2] the target is G810R mutant RET kinase (Homo sapiens, UniProt P07949, G810R).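 Also: HTRF KinEASE-TK enzymatic assay with 1 nM recombinant RET G810R, 1 h at 22 °C, dual-wavelength ratiometric readout, 100% control without compound, 0% from pre-quenched reactions.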
Chain of G810R mutant RET kinase (P07949 29-1114 G810R): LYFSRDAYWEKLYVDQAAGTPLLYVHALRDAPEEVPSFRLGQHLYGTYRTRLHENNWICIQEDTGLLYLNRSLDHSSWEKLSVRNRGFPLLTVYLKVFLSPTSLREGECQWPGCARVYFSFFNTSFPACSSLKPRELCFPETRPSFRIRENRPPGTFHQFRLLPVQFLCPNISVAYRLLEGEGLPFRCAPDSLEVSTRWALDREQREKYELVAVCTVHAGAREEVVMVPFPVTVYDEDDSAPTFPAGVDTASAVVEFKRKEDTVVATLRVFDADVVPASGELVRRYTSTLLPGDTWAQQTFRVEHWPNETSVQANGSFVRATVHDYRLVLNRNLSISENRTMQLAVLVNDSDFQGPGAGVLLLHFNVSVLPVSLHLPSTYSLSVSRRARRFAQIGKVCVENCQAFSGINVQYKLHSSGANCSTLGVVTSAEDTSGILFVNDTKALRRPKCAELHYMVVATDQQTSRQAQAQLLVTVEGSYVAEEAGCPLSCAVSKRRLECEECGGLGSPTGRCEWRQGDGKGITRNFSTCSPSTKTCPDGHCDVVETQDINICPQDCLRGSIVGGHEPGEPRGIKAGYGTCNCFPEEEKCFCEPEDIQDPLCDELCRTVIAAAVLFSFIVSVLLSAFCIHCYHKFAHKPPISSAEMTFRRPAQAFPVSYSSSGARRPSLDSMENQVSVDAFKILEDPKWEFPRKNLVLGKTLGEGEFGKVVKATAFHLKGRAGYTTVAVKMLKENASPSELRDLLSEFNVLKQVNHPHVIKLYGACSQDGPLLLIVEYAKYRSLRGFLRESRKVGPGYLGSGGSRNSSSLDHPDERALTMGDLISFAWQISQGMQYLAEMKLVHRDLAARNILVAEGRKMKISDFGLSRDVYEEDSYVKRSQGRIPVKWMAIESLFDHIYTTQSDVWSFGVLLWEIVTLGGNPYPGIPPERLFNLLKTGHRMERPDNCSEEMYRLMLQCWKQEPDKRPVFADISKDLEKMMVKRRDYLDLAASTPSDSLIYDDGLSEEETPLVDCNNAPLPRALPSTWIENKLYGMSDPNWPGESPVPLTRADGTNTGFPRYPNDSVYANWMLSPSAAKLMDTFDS
Description: as §1, §2
For assay [3], the target named is RET kinase Wild Type (Homo sapiens, UniProt P07949).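 Also: HTRF kinase activity assay on RET enzyme, 1 h reaction at 22 °C, dual-wavelength readout as percent of control, DMSO-only wells as 100%, pre-quenched reactions as 0%.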
Chain of RET kinase Wild Type (P07949 29-1114): as the sequence (P07949 29-1114 G810R) above, with R782G counted along it
Description: as §1

Chain of G810S mutant RET kinase (P07949 29-1114 G810S): as the sequence (P07949 29-1114 G810R) above, with R782S counted along it

On to `CC(C)n1c2c(c3c(N)ncnc31)-c1cnn(C3CC3)c1C(=O)NC2` [Example 109, 11-amino-3-cyclopropyl-7-isopropyl-3,5,6,7-tetrahydro-4H-pyrazolo[3,4-c]pyrimido[5′,4′:4,5]pyrrolo[3,2-e]azepin-4-one 2,2,2-trifluoroacetate], for which the IC50 came to 2.27 µM in assay [1], 1.81 µM in assay [2] and 1.78 µM in assay [3].

`CC(C)n1c2c(c3c(N)ncnc31)-c1ccc(NC(=O)NC3CC3)cc1C(=O)NC2` [Example 49, 1-(12-amino-8-isopropyl-5-oxo-5,6,7,8-tetrahydrobenzo[c]pyrimido[5′,4′:4,5]pyrrolo[3,2-e]azepin-3-yl)-3-cyclopropylurea] registered a half-maximal inhibitory concentration (IC50) in assay [3] of 8.42 µM.

`CC(C)n1c2c(c3c(N)ncnc31)-c1cc3ccc(C(=O)Nc4ccn(CC(=O)N(C)C)n4)cc3n1CCC2` [Example 99, 1-amino-N-(1-(2-(dimethylamino)-2-oxoethyl)-1H-pyrazol-3-yl)-5-isopropyl-5,6,7,8-tetrahydropyrimido[5″,4″:4′,5′]pyrrolo[3′,2′: 3,4]azepino[1,2-a]indole-11-carboxamide]: the values for the IC50 in assay [1], in assay [2] and in assay [3] were 3.25 µM, 2.21 µM and 0.881 µM, respectively.

For the compound `Cc1cc(NC(=O)c2ccc3cc4n(c3c2)CCCc2c-4c3c(N)ncnc3n2C(C)C)nn1C` [Example 98, 1-amino-N-(1,5-dimethyl-1H-pyrazol-3-yl)-5-isopropyl-5,6,7,8-tetrahydropyrimido[5″,4″:4′,5′]pyrrolo[3′,2′: 3,4]azepino[1,2-a]indole-11-carboxamide], the IC50 in assay [1] stood at 7.95 µM; in assay [2] it was 4.07 µM; in assay [3], 2.21 µM.

As to `CC(C)n1c2c(c3c(N)ncnc31)-c1cc3cc(C#N)ccc3n1C(=O)NC2` [Example 78, 1-amino-5-isopropyl-8-oxo-5,6,7,8-tetrahydropyrimido[5″,4″:4′,5′]pyrrolo[2′,3′: 5,6][1,3]diazepino[1,7-a]indole-12-carbonitrile], the IC50 in assay [1] came to 0.72 µM; in assay [2] it was 0.507 µM; in assay [3], 0.638 µM.

Regarding `CC(C)n1c2c(c3c(N)ncnc31)-c1cc3ccc(C(F)(F)F)cc3n1C(=O)NC2` [Example 82, 1-amino-5-isopropyl-11-(trifluoromethyl)-6,7-dihydropyrimido[5″,4″:4′,5′]pyrrolo[2′,3′: 5,6][1,3]diazepino[1,7-a]indol-8(5H)-one], the IC50 in assay [1] amounted to 0.821 µM; in assay [2] it was 0.42 µM; in assay [3] it was 0.358 µM.

Turning to `CC(C)n1c2c(c3c(N)ncnc31)-c1ccc(NC(=O)CC3CC3)cc1C(=O)NC2` [Example 48, N-(12-amino-8-isopropyl-5-oxo-5,6,7,8-tetrahydrobenzo[c]pyrimido[5′,4′:4,5]pyrrolo[3,2-e]azepin-3-yl)-2-cyclopropylacetamide], the IC50 came to 7.88 µM in assay [2] and 2.44 µM in assay [3].

In the case of `CC(C)n1c2c(c3c(N)ncnc31)-c1ccc(Cl)c(F)c1C(=O)NC2` [Example 50, 12-amino-3-chloro-4-fluoro-8-isopropyl-7,8-dihydrobenzo[c]pyrimido[5′,4′:4,5]pyrrolo[3,2-e]azepin-5(6H)-one], the IC50 came to 5.08 µM in assay [1], 2.57 µM in assay [2] and 2.18 µM in assay [3].

On to `CC(C)n1c2c(c3c(N)ncnc31)-c1noc(C3CC3)c1CN(C(=O)Cc1ccccc1)C2` [Example 39, 1-(11-amino-3-cyclopropyl-7-isopropyl-6,7-dihydroisoxazolo[4,3-c]pyrimido[5′,4′:4,5]pyrrolo[3,2-e]azepin-5(4H)-yl)-2-phenylethan-1-one], for which the IC50 in assay [1] came out at 4.14 µM; in assay [2], 3.07 µM; in assay [3] it was 0.893 µM.

Turning to `COc1ccc2c(c1)cc1n2C(=O)NCc2c-1c1c(N)ncnc1n2C(C)C` [Example 85, 1-amino-5-isopropyl-12-methoxy-6,7-dihydropyrimido[5″,4″:4′,5′]pyrrolo[2′,3′:5,6][1,3]diazepino[1,7-a]indol-8(5H)-one], the IC50 in assay [1] came to 0.96 µM; in assay [2], 0.501 µM; in assay [3], 0.389 µM.

The IC50 is the point on the concentration scale where inhibition reaches its midpoint.
